Patent publication US10039282B2, “Six-membered C—N-bonded aryl sulphide and aryl sulphoxide derivatives as pesticides” (BAYER CROPSCIENCE AKTIENGESELLSCHAFT, priority 2013, dated 2018)
Like-named read-outs stand apart in the source and are kept apart here.

Columns and labels:
[1] = tested on: Meloidogyne incognita; assay: Meloidogyne incognita test (sand, lettuce, gall formation after 14 days); type: in vivo; details: 20 ppm
Protocol: 2. Meloidogyne Incognita Test
Solvent: 125.0 parts by weight of acetone
To produce an appropriate active compound formulation, 1 part by weight of active compound is mixed with the stated amount of solvent and the concentrate is diluted with water to the desired concentration.
Vessels are filled with sand, active compound solution, an egg/larvae suspension of the southern root-knot nematode (Meloidogyne incognita) and lettuce seeds. The lettuce seeds germinate and the plants develop. The galls develop on the roots.
After 14 days, the nematicidal efficacy in % is determined by the formation of galls. 100% means that no galls were found; 0% means that the number of galls on the treated plants corresponds to the untreated control.

[2] = tested on: Tetranychus urticae; assay: Tetranychus urticae spray test, OP-resistant (bean leaf discs); type: in vivo; details: 500 g/ha, after 6 days
Protocol: 4. Tetranychus urticae—Spray Test, OP-Resistant
(§1) Solvent: 78.0 parts by weight of acetone
(§2) • 1.5 parts by weight of dimethylformamide Emulsifier: alkylaryl polyglycol ether
To produce further test concentrations, the preparation is diluted with emulsifier-containing water.
After 6 days, the efficacy in % is determined. 100% means that all the spider mites have been killed; 0% means that none of the spider mites have been killed.

[3] = tested on: Tetranychus urticae; assay: Tetranychus urticae spray test, OP-resistant (bean plants); type: in vivo; details: 20 ppm, after 7 days
Protocol: 6. Tetranychus urticae—Spray Test, OP-Resistant
(§3) Solvent: 7 parts by weight of dimethylformamide
Emulsifier: alkylaryl polyglycol ether
(§4) To produce an appropriate active compound formulation, 1 part by weight of active compound is dissolved using the specified parts by weight of solvent and made up with water containing an emulsifier concentration of 1000 ppm until the desired concentration is attained. To produce further test concentrations, the preparation is diluted with emulsifier-containing water. If the addition of ammonium salts or/and penetrants is required, these are each added in a concentration of 1000 ppm to the formulation solution.
Bean plants (Phaseolus vulgaris) heavily infested by all stages of the greenhouse red spider mite (Tetranychus urticae) are treated by spraying with the active compound formulation in the desired concentration.
After 7 days, the efficacy in % is determined. 100% means that all the spider mites have been killed; 0% means that none of the spider mites have been killed.

[4] = tested on: Phaedon cochleariae; assay: Phaedon cochleariae spray test; type: in vivo; details: 500 g/ha, after 7 days
Protocol: 3. Phaedon cochleariae—Spray Test
Solvent: 78.0 parts by weight of acetone • • 1.5 parts by weight of dimethylformamide Emulsifier: alkylaryl polyglycol ether
as §4, with “water.” for “water. If the addition of ammonium salts or/and penetrants is required, these are each added in a concentration of 1000 ppm to the formulation solution.”
(§5) Discs of Chinese cabbage leaves (Brassica pekinensis) are sprayed with an active compound formulation of the desired concentration and, after drying, populated with larvae of the mustard beetle (Phaedon cochleariae).
After 7 days, the efficacy in % is determined 100% means that all the beetle larvae have been killed; 0% means that no beetle larvae have been killed.

[5] = tested on: Boophilus microplus; assay: Boophilus microplus injection test; type: in vivo; details: 20 μg/animal, assessed after 7 days
Protocol: 1. Boophilus microplus—Injection Test
Solvent: dimethyl sulphoxide
To produce an appropriate active compound formulation, 10 mg of active compound are mixed with 0.5 ml of solvent and the concentrate is diluted with solvent to the desired concentration.
1 μl of the active compound solution is injected into the abdomen of 5 engorged adult female cattle ticks (Boophilus microplus). The animals are transferred into dishes and kept in a climate-controlled room.
The efficacy is assessed after 7 days by laying of fertile eggs. Eggs which are not visibly fertile are stored in a climate-controlled cabinet until the larvae hatch after about 42 days. An efficacy of 100% means that none of the ticks has laid any fertile eggs; 0% means that all the eggs are fertile.

[6] = tested on: Tetranychus urticae; assay: Comparative Tetranychus urticae spray test, OP-resistant (TETRUR); type: in vivo; details: 144 h
Protocol: 2. Tetranychus urticae—Spray Test; OP-Resistant ([…])
as §1, §2
as §4, with “water.” for “water. If the addition of ammonium salts or/and penetrants is required, these are each added in a concentration of 1000 ppm to the formulation solution.”
Discs of bean leaves (Phaseolus vulgaris) infested by all stages of the greenhouse red spider mite (Tetranychus urticae) are sprayed with an active compound formulation of the desired concentration.
After the desired period of time, the effect in % is determined 100% means that all the spider mites have been killed; 0% means that none of the spider mites have been killed.

[7] = log P by reversed-phase HPLC analogously to OECD Guideline 117; type: physicochemical; details: reversed-phase C18 HPLC column
Protocol: The log P values were determined analogously to OECD Guideline 117 (EC Directive 92/69/EEC) by HPLC (high-performance liquid chromatography) using reversed-phase columns (C 18), by the following methods:
[a] The LC-MS determination in the acidic range is effected at pH 2.7 with 0.1% aqueous formic acid and acetonitrile (contains 0.1% formic acid) as eluents; linear gradient from 10% acetonitrile to 95% acetonitrile. log P^[…] is also referred to as log P(HCOOH). [b] LC-MS determination in the neutral range is effected at pH 7.8 with 0.001 molar aqueous ammonium hydrogencarbonate solution and acetonitrile as eluents; linear gradient from 10% acetonitrile to 95% acetonitrile. log P^[…] is also referred to as log P(neutral).
Calibration is effected with solutions of a homologous series of unbranched alkan-2-ones (having 3 to 16 carbon atoms) with known log P values (log P values determined on the basis of the retention times by linear interpolation between two successive alkanones).

[8] = tested on: Phaedon cochleariae; assay: whole plant or invertebrate; type: in vivo; details: 168 h
Protocol: 1. Phaedon cochleariae—Spray Test (PHAECO)
as §1, §2
as §4, with “water.” for “water. If the addition of ammonium salts or/and penetrants is required, these are each added in a concentration of 1000 ppm to the formulation solution.”
as §5
After the desired period of time, the effect in % is determined. 100% means that all the beetle larvae have been killed; 0% means that no beetle larvae have been killed.

[9] = tested on: Meloidogyne incognita; assay: Meloidogyne incognita test (soil drench, gall formation after 21 days); type: in vivo; details: 8 ppm
Protocol: 5. Meloidogyne incognita Test
as §3
Emulsifier: 2.5 parts by weight of alkylaryl poly glycol ether
To produce an appropriate active compound formulation, 1 part by weight of active compound is mixed with the stated amounts of solvent and emulsifier, and the concentrate is diluted with water to the desired concentration, it being necessary to include the volume of soil which is drenched in the calculation. It should be ensured that a concentration of 20 ppm of emulsifier in the soil is not exceeded. To produce further test concentrations, water is used for dilution.
Pots filled with soil (loamy sand) are watered with the active compound solution. An egg/larvae suspension of the southern root-knot nematode (Meloidogyne incognita) is added, lettuce seeds are scattered over the surface of the soil, and they are covered over with quartz sand. The lettuce seeds germinate and the plants develop. The galls develop on the roots.
After 21 days, the nematicidal efficacy in % is determined by the formation of galls. 100% means that no galls have been found; 0% means that the number of galls on the treated plants corresponds to the untreated control.

[10] = acidic range, pH 2.7, 0.1% aqueous formic acid/acetonitrile, read-out: logP (HCOOH)
[11] = neutral range, pH 7.8, 0.001 molar aqueous ammonium hydrogencarbonate/acetonitrile, read-out: logP (neutral)

| SMILES | nematicidal efficacy (formation of galls) [1] | efficacy (spider mites killed) [2] | efficacy (beetle larvae killed) [4] | efficacy (no fertile eggs laid) [5] | further results |
| --- | --- | --- | --- | --- | --- |
| Cc1ccc(-n2cncc(C)c2=O)cc1[S+]([O-])CC(F)(F)F (racemic) [Example 27] | 90% | – | – | – | – |
| Cc1cc(C)c(-n2c(C)nc(C(F)(F)F)cc2=O)cc1SCC(F)(F)F [Example 30] | 90% | 100% | – | – | – |
| Cc1cc(C)c([S+]([O-])CC(F)(F)F)cc1-n1cnc(C(F)(F)F)cc1=O (single isomer, unassigned) [Example 49] | – | – | – | – | efficacy (spider mites killed) [3]: 100% |
| Cc1cc(=O)n(-c2cc([S+]([O-])CC(F)(F)F)c(C)cc2F)cn1 (racemic) [Example 46] | – | 100% | 83% | – | – |
| Cc1cc(C)c([S+]([O-])CC(F)(F)F)cc1-n1cnc(C(F)(F)F)cc1=O (racemic) [Example 6, 3-[2,4-Dimethyl-5-(2,2,2-trifluoroethylsulphinyl)phenyl]-6-(trifluoromethyl)pyrimidin-4-one] | – | 100% | – | 100% | mortality at 20 g/ha ([6]; TETRUR, 20 g/ha, 6 dat, read-out: % mortality): 100%; chromatographic logP [7, 10]: 2.43; chromatographic logP [7, 11]: 2.39 |
| Cc1cc(C)c([S+]([O-])CC(F)(F)F)cc1-n1cnc(C(F)(F)F)cc1=O (single isomer, unassigned) [Example 56] | – | – | – | – | efficacy (spider mites killed) [3]: 100% |
| Cc1ccc(-n2cncc(F)c2=O)cc1SCC(F)(F)F [Example 12] | 90% | 90% | – | – | – |
| O=c1cc(C(F)(F)F)ncn1-c1ccc(Cl)c([S+]([O-])CC(F)(F)F)c1 (racemic) [Example 34] | – | 100% | 83% | 100% | – |
| N#Cc1ccc(-n2cnc(C(F)(F)F)cc2=O)cc1[S+]([O-])CC(F)(F)F (centres unmarked) [4-[6-oxo-4-(trifluoromethyl)pyrimidin-1-yl]-2-(2,2,2-trifluoroethylsulphinyl)benzonitrile, reference compound] | – | – | – | – | mortality at 500 g/ha [8]: 0%; mortality at 20 g/ha [6]: 0% |
| Cc1cc(F)c(-n2cnc(C(F)(F)F)cc2=O)cc1[S+]([O-])CC(F)(F)F (centres unmarked) [Example 2, 3-{2-Fluoro-4-methyl-5-[(2,2,2-trifluoroethyl)sulphinyl]phenyl}-6-(trifluoromethyl)pyrimidin-4(3H)-one] | – | 100% | 100% | 100% | nematicidal efficacy (formation of galls) [9]: 85%; mortality at 500 g/ha [8]: 100%; chromatographic logP [7, 10]: 2.4; chromatographic logP [7, 11]: 2.38 |
| Cc1cc(=O)n(-c2cc(SCC(F)(F)F)c(C)cc2F)cn1 [Example 44] | – | 100% | 100% | – | – |
| Cc1cc(F)c(-n2cnc(C(F)(F)C(F)(F)F)cc2=O)cc1SCC(F)(F)F [Example 9] | 90% | 100% | 100% | 100% | – |
| O=c1cc(C(F)(F)F)ncn1-c1cc([S+]([O-])CC(F)(F)F)c(Br)cc1F (racemic) [Example 41] | 90% | 100% | – | – | – |
| Cc1cc(C)c(-n2cnc(C(F)(F)F)cc2=O)cc1SCC(F)(F)F [Example 5, 3-[2,4-Dimethyl-5-(2,2,2-trifluoroethylsulphanyl)phenyl]-6-(trifluoromethyl)pyrimidin-4-one] | – | 100% | – | 100% | chromatographic logP [7, 10]: 3.56; chromatographic logP [7, 11]: 3.5 |
| Cc1cc(F)c(-n2cnc(C(F)(F)C(F)(F)F)cc2=O)cc1[S+]([O-])CC(F)(F)F (single isomer, unassigned) [Example 26] | 90% | 100% | – | 100% | – |
| Cc1cc(Cl)c(-n2cnc(C(F)(F)F)cc2=O)cc1[S+]([O-])CC(F)(F)F (racemic) [Example 53] | – | 100% | 100% | 100% | – |
| Cc1cc(F)c(-n2cnc(C(F)(F)C(F)(F)F)cc2=O)cc1[S+]([O-])CC(F)(F)F (single isomer, unassigned) [Example 18] | – | 100% | 83% | – | – |
| Cc1cc(F)c(-n2cnc(C(F)F)cc2=O)cc1[S+]([O-])CC(F)(F)F (racemic) [Example 55] | – | 100% | 100% | – | – |
| N#Cc1cc(F)c(-n2cnc(C(F)(F)F)cc2=O)cc1[S+]([O-])CC(F)(F)F (centres unmarked) [5-fluoro-4-[6-oxo-4-(trifluoromethyl)pyrimidin-1-yl]-2-(2,2,2-trifluoroethylsulphinyl)benzonitrile] | – | – | – | – | mortality at 500 g/ha [8]: 50% |
| Cc1cc(C)c([S+]([O-])CC(F)(F)F)cc1-n1cnc(C(F)(F)C(F)(F)F)cc1=O (racemic) [Example 33] | 100% | 100% | – | – | – |
| Cc1cc(C)c([S+]([O-])CC(F)(F)F)cc1-n1cnc(C(F)(F)C(F)(F)F)cc1=O (racemic) [Example 45] | 100% | 100% | – | – | – |
